Measured values published in patent US8381774B2, “Methods for loading a drug eluting medical device” (Medtronic Vascular, Inc., priority 2009, dated 2013).

Assay: ability of solvents and dispersion mediums to dissolve the therapeutic substance (sirolimus)
Assay type: physicochemical
Method: Solution 524 is a homogeneous mixture in which therapeutic substance 112 dissolves within a solvent or a solvent mixture. In one embodiment, solution 524 includes a high-capacity solvent 528 which is an organic solvent that has a high capacity to dissolve therapeutic substance 112. High capacity as utilized herein is defined as an ability to dissolve therapeutic substance 112 at concentrations greater than 500 mg of substance per milliliter of solvent. Examples of high capacity drug dissolving solvents for sirolimus and similar substances include but are not limited to tetrahydrofuran (THF), di-chloromethane (DCM), chloroform, and di-methyl-sulfoxide (DMSO). In addition to the high-capacity solvent, solution 524 may include an excipient 526 in order to assist in drug elution. In one embodiment, excipient 526 may be a surfactant such as but not limited to sorbitan fatty acid esters such as sorbitan monooleate and sorbitan monolaurate, polysorbates such as polysorbate 20, polysorbate 60, and polysorbate 80, cyclodextrins such as 2-hydroxypropyl-beta-cyclodextrin and 2,6-di-O-methyl-beta-cyclodextrin, sodium dodecyl sulfate, octyl glucoside, and low molecular weight poly(ethylene glycol)s. In another embodiment, excipient 526 may be a hydrophilic agent such as but not limited to salts such as sodium chloride and other materials such as urea, citric acid, and ascorbic acid. […]

## CO[C@H]1C[C@@H]2CC[C@@H](C)[C@@](O)(O2)C(=O)C(=O)N2CCCC[C@H]2C(=O)O[C@H]([C@H](C)C[C@@H]2CC[C@@H](O)[C@H](OC)C2)CC(=O)[C@H](C)/C=C(\C)[C@@H](O)[C@@H](OC)C(=O)[C@H](C)C[C@H](C)/C=C/C=C/C=C/1C [sirolimus]
Hexane (precipitator solvent)
  solubility in hexane: insoluble
water
  solubility in water: insoluble
